Assay results reported in US20230406840A1, “N-(2-(3-CYANO-2-AZABICYCLO[3.1.0]HEXAN-2-YL)-2-OXOETHYL)QUINOLINE-4-CARBOXAMIDES” (AstraZeneca AB, priority 2022, published 2023).
pIC50, pKd: −log10 of the molar value. ≈ marks a conversion by molar mass, not a printed value.

What was measured:
[1] = target: human Fibroblast activation protein alpha (hFAP) (Homo sapiens (Human), UniProt Q12884); assay: hFAP inhibition assay (tight binders); assay type: biochemical; details: tight-binder format, Ala-Pro-AMC 20 μM, 2.5 h incubation; n = 1 or geometric mean (n = 5-10)
Procedure: Data were analyzed in Genedata Screener®.

[2] = target: FAP Human Plasma (Homo sapiens (Human), UniProt Q12884); assay: FAP plasma inhibition assay, human plasma; assay type: biochemical; details: human plasma dilution 1:40, Ala-Pro-AMC 75 μM; n = 1
Procedure: (§1) This assay was adapted from the method described in Example 53 for detection of FAP target engagement enzyme activity in plasma. Plasma (anticoagulant K2EDTA) was used as the enzyme source: Human plasma (Pooled from AZ Biobank) and Mouse plasma (AZ AST Biobank). 384-Well black fluotrack PS plates (Greiner 781076) were used. 20 μL diluted plasma (Human plasma dilution 1:40, Mouse plasma dilution 1:67) in buffer (PBS, 0.1% BSA) was added to 0.6 μL compounds (in DMSO). Compounds were tested using 10 CR, 3-fold dilution series from 500 nM FAC. Two replicates for each assay point were run on the same plate. A fluorescence blank read was taken before substrate addition. Substrate, Ala-Pro-AMC (ARI-3144) stock solution (20 mM in DMSO) was diluted in buffer (PBS, 0.1% BSA) to 150 μM concentration and 20 μL added giving 75 μM FAC. Plates were incubated for 40 min at rt in the dark. The plates were read on a Beckman Paradigm® reader with excitation 360 nm and emission 465 nm. Data were analyzed in Excel (IDBS XLfit Add-In) using a one site dose response model (4-parameter logistic fit). […] Raw data signals were normalized using 1.5% DMSO in diluted plasma as 0% control and 1.5% DMSO in buffer (no plasma) as 100% inhibitor control.

[3] = target: FAP Mouse Plasma (Mus musculus (Mouse), UniProt P97321); assay: FAP plasma inhibition assay, mouse plasma; assay type: biochemical; details: mouse plasma dilution 1:67, Ala-Pro-AMC 75 μM; n = 1
Procedure: as §1

[4] = target: Prolyl Oligopeptidase (hPREP) (Homo sapiens (Human), UniProt P48147); assay: hPREP inhibition assay; assay type: biochemical; details: hPREP 0.6 nM, Z-Gly-Pro-amino-methylcoumarin 50 μM; read-out: PREP IC50
Procedure: Compounds were tested in a biochemical inhibition assay using Prolyl endopeptidase, Prolyl Oligopeptidase (hPREP) enzyme at 0.6 nM FAC (R&D Systems, 4308-SE) and the substrate Z-Gly-Pro-amino-methylcoumarin (Bachem, I-1145) at 50 μM FAC. 384 Low volume black plates (Greiner #784076) were used. […] 4 μL, 100 μM substrate solution (25 mM Tris HCl, 250 mM NaCl, 0.01% Triton X-100, 5 mM Glutathione, pH 7.5) was added to each well. Plates were centrifuged at 1000 rpm and incubated for 20 min at rt in dark. […] Data were analyzed in Genedata Screener®.

[5] = Metabolic stability in human liver microsomes (HLM); assay type: in vitro ADME
Procedure: Metabolic stability in HLM was measured as described in J Comput Aided Mol Des 2015, 29, 795.

[6] = tested on: Rat Hepatocytes (rHep); assay: Metabolic stability in rat hepatocytes (rHep); assay type: in vitro ADME
Procedure: Metabolic stability in rat hepatocytes was measured as described in J Comput Aided Mol Des 2015, 29, 795.

[7] = tested on: Human Hepatocytes (hHep); assay: Metabolic stability in human hepatocytes (hHep); assay type: in vitro ADME
Procedure: Metabolic stability in human hepatocytes was measured as described in Xenobiotica 2010, 40, 637.

[8] = Kinetic solubility; assay type: physicochemical; details: kinetic from dmso stock
Procedure: Kinetic solubility was measured as described in Comput Aided Mol Des 2015, 29, 795.

[9] = target: hFAP (Homo sapiens (Human), UniProt Q12884);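 note: fluorescence read after incubating enzyme with substrate at room temperature, IC50 fitted from percent inhibition against log concentration with a one-site model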
Procedure: Compounds were tested in a biochemical inhibition assay using hFAP enzyme at 0.24 nM FAC (Proteros, 38-760 (PR-0071)) and the substrate Ala-Pro-AMC (ARI-3144) at 20 μM FAC. 384 low volume black plates (Greiner #784076) were used. 4 μL, 0.48 nM enzyme solution (100 mM Tris HCl, 100 mM NaCl, 0.05% Chaps, pH 7.4) was added to 40 nL compounds (in DMSO) at 10 CR, 3-fold dilution series from 50 μM FAC. Plates were incubated for 15 min at rt in dark. 4 μL, 40 μM substrate solution (100 mM Tris HCl, 100 mM NaCl, 0.05% Chaps, pH 7.4) was added to each well. Plates were centrifuged at 1000 rpm and incubated for 30 min at rt in dark. The plates were read on a PHERAstar® reader with excitation 340 nm and emission 460 nm. Data were analyzed in Genedata Screener®. IC50 values were determined by plotting % inhibition versus log compound concentration and using a one site dose response model.

[10] = Caco-2 AB intrinsic permeability; assay type: in vitro ADME; details: human, A to B, read-out: Caco2 AB Intrinsic Papp
Procedure: (§2) Caco-2 cell permeability was measured as described in Mol/Pharm 2017, 14, 1601.

[11] = Caco-2 bidirectional (ABBA) permeability; assay type: in vitro ADME; details: human
Procedure: as §2

[12] = target: hFAP (M39-A757) (Homo sapiens (Human), UniProt Q12884)
Sequence of hFAP (M39-A757) (Q12884 39-757): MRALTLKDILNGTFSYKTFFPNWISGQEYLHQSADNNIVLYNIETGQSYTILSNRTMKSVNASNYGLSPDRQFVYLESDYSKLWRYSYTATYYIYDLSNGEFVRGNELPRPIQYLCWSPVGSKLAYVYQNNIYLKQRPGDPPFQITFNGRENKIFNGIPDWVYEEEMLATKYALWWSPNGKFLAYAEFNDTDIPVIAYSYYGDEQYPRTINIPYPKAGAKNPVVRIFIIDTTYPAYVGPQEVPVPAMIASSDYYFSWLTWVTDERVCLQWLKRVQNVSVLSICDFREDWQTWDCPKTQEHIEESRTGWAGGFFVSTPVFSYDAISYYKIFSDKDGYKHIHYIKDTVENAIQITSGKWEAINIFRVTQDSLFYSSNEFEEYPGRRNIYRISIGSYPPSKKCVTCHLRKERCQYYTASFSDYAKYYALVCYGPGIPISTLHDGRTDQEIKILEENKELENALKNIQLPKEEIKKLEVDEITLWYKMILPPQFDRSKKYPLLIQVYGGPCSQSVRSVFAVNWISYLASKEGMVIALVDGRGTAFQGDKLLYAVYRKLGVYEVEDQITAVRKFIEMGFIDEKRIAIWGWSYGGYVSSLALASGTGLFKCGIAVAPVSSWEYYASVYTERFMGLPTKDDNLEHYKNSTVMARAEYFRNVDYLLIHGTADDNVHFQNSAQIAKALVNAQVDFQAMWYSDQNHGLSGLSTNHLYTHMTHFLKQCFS
Procedure: Compounds were tested in a direct binding assay using 8K surface plasmon resonance biosensor (GE Healthcare) at 20° C. Immobilization of hFAP (M39-A757) on a CMD200M sensor chip (Xantec) was performed using standard amine coupling procedure in immobilization buffer (10 mM HEPES, 150 mM NaCl, 0.05% Tween20, pH 7.4). The surface was washed with 10 mM NaOH, 1M NaCl before being activated with EDC/NHS (GE Healthcare), followed by immobilization of hFAP (in 10 mM Acetate pH 5.0). Finally, the surface was deactivated by ethanolamine. Immobilization levels of hFAP were around 4000-6000 RU. The reference spot was treated as described, omitting the injection of hFAP. Compound concentration series were injected over the immobilized protein in increasing concentrations (2-500 nM) using single cycle kinetics in running buffer (20 mM TRIS, 150 mM NaCl, 0.05% Tween20, 1% DMSO, pH 7.4). Interaction models were fitted globally to the experimental traces, enabling determination of kon, koff and Kd.

Sequence of hFAP (Q12884 38-760): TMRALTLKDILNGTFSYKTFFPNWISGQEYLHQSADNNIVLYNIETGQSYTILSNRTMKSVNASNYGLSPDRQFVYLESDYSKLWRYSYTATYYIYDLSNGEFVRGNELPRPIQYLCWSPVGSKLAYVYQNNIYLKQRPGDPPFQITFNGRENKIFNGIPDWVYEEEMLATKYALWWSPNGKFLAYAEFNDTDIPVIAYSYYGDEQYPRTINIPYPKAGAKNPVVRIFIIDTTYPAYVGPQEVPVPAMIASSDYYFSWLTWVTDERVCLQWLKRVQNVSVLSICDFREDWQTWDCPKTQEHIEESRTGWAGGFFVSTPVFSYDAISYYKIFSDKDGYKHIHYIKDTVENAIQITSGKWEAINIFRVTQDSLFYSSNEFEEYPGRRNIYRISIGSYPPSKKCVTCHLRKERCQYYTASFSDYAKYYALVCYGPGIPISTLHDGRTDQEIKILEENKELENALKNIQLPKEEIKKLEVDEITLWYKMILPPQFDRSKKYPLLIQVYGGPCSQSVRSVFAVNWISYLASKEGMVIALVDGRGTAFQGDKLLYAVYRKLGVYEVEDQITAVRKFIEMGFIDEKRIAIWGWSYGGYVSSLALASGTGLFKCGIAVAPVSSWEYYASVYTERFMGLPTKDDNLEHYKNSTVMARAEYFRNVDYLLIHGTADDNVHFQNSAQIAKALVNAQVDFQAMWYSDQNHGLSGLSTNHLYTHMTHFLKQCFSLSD
Sequence of human Fibroblast activation protein alpha (hFAP) (Q12884 38-760): as above
Sequence of Prolyl Oligopeptidase (hPREP) (P48147 whole entry): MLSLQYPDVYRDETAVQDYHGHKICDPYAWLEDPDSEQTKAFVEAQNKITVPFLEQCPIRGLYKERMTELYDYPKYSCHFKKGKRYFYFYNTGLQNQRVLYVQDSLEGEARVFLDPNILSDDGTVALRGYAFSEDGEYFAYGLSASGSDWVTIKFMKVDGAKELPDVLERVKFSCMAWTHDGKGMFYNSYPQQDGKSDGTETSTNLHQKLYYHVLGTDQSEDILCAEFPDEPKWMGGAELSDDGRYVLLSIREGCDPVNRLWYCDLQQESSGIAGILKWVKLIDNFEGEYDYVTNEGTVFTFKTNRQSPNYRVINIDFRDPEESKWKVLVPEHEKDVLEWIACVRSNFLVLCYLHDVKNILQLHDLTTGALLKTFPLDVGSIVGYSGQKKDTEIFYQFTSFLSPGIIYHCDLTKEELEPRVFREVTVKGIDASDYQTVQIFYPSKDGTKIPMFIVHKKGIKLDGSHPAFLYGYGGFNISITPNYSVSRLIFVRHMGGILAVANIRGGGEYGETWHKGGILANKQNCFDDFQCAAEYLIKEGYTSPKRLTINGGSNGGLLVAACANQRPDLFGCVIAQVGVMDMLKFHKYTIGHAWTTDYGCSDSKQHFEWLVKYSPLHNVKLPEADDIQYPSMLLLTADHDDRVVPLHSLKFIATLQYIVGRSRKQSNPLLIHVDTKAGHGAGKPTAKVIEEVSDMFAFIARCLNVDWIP
Sequence of FAP Mouse Plasma (P97321 24-761 limits assumed): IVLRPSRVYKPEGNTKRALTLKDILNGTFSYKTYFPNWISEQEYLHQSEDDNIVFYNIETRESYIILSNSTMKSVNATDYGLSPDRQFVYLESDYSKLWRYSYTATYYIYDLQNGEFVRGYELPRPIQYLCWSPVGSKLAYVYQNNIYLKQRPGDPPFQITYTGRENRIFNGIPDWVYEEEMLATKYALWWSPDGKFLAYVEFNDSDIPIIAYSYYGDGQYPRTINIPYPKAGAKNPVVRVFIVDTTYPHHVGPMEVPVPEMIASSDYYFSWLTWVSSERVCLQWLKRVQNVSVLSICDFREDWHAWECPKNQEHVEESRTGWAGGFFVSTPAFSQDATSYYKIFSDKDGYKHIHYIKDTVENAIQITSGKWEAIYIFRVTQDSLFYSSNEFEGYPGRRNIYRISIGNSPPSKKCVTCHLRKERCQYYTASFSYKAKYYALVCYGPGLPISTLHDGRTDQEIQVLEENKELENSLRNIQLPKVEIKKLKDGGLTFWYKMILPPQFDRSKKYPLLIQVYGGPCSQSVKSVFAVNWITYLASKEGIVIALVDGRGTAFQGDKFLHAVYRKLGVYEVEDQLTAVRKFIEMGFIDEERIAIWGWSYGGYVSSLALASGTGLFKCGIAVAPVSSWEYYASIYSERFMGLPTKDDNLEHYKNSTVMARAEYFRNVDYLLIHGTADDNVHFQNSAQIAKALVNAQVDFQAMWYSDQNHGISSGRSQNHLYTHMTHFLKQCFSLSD
Sequence of FAP Human Plasma (Q12884 24-760 limits assumed): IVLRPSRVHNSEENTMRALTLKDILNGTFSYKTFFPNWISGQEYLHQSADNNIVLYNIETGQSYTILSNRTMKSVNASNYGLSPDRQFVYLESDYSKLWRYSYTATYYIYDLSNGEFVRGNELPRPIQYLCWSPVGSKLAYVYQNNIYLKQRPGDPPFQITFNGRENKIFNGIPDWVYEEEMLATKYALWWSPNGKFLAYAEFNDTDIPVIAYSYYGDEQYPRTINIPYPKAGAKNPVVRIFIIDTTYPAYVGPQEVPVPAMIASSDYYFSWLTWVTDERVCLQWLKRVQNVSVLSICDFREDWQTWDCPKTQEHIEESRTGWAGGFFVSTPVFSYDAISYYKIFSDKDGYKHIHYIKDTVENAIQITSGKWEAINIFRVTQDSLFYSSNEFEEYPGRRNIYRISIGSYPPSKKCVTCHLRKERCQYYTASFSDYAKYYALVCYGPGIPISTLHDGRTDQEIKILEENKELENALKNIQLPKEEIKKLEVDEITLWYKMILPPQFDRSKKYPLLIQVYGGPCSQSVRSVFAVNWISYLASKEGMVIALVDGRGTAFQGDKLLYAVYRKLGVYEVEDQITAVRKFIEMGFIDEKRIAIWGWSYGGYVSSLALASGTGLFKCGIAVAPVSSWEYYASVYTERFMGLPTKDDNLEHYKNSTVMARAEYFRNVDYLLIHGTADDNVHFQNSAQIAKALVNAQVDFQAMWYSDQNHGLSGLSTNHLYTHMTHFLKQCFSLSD

Compound | pIC50 [1] | pIC50 [2] | pIC50 [3] | pIC50 [4] | microsomal CLint [5] | rHeps CLint [6] | hHep CLint [7] | solubility [8] | pIC50 [9] | Papp [10] | Papp A→B ([11]; A to B, read-out: Caco2 Bidirectional (ABBA) A to B Papp) | Papp B→A ([11]; B to A, read-out: Caco2 Bidirectional (ABBA) B to A Papp) | efflux ratio ([11]; read-out: Caco2 Bidirectional (ABBA) Efflux Ratio) | pKd [12]
N#C[C@@H]1C[C@@H]2C[C@@H]2N1C(=O)CNC(=O)c1ccnc2ccc(Br)cc12 [Example 1, 6-Bromo-N-(2-((1S,3S,5S)-3-cyano-2-azabicyclo[3.1.0]hexan-2-yl)-2-oxoethyl)quinoline-4-carboxamide] | 9.36 | 7.64 | 7.70 | 4.57 | 9.7 µL/min/mg | 3.8 μL/min/1E6 | 2.8 μL/min/1E6 | 290 µM (≈ 116 µg/mL) | 8.70 |  |  |  |  | 
N#C[C@@H]1C[C@@H]2C[C@@H]2N1C(=O)CNC(=O)c1ccnc2cc(Br)ccc12 [Example 3, 7-Bromo-N-(2-((1S,3S,5S)-3-cyano-2-azabicyclo[3.1.0]hexan-2-yl)-2-oxoethyl)quinoline-4-carboxamide] | 9.92 | 7.82 | 7.82 | < 4.30 | < 3 µL/min/mg | 4.5 μL/min/1E6 | <1 μL/min/1E6 | 210 µM (≈ 83.8 µg/mL) | 9.17 |  |  |  |  | 
Cc1ccc2nccc(C(=O)NCC(=O)N3[C@H](C#N)C[C@@H]4C[C@@H]43)c2c1 [Example 9, N-(2-((1S,3S,5S)-3-Cyano-2-azabicyclo[3.1.0]hexan-2-yl)-2-oxoethyl)-6-methylquinoline-4-carboxamide] | 9.25 | 8.12 | 8.57 | < 4.30 |  |  |  |  | > 8.55 |  |  |  |  | 
N#C[C@@H]1C[C@@H]2C[C@@H]2N1C(=O)CNC(=O)c1ccnc2ccc(C(F)(F)F)cc12 [Example 10, N-(2-((1S,3S,5S)-3-Cyano-2-azabicyclo[3.1.0]hexan-2-yl)-2-oxoethyl)-6-(trifluoromethyl)quinoline-4-carboxamide] |  | 7.47 | 7.82 | < 4.30 | 37 µL/min/mg | 6.7 μL/min/1E6 | 7 μL/min/1E6 | 140 µM (≈ 54.4 µg/mL) | 8.32 |  |  |  |  | 
Cc1ccc2c(C(=O)NCC(=O)N3[C@H](C#N)C[C@@H]4C[C@@H]43)cc(C)nc2c1 [Example 31, N-(2-((1S,3S,5S)-3-Cyano-2-azabicyclo[3.1.0]hexan-2-yl)-2-oxoethyl)-2,7-dimethylquinoline-4-carboxamide] | 7.96 | 6.49 |  | 4.42 | 6.2 µL/min/mg | 1.6 μL/min/1E6 | <1 μL/min/1E6 | > 1000 µM | 7.51 | 56 ×10⁻⁶ cm/s |  |  |  | 
N#C[C@@H]1C[C@@H]2C[C@@H]2N1C(=O)CNC(=O)c1ccnc2cc(C3CC3)ccc12 [Example 37, N-(2-((1S,3S,5S)-3-Cyano-2-azabicyclo[3.1.0]hexan-2-yl)-2-oxoethyl)-7-cyclopropylquinoline-4-carboxamide] | 9.52 | 8.26 | 8.62 | < 4.30 | 8.4 µL/min/mg | 49 μL/min/1E6 | 2.3 μL/min/1E6 | 810 µM (≈ 292 µg/mL) | > 8.77 | 29 ×10⁻⁶ cm/s | 18 ×10⁻⁶ cm/s | 33 ×10⁻⁶ cm/s | 1.8 | 
COc1ccc2c(C(=O)NCC(=O)N3[C@H](C#N)C[C@@H]4C[C@@H]43)cc(C)nc2c1 [Example 41, N-(2-((1S,3S,5S)-3-Cyano-2-azabicyclo[3.1.0]hexan-2-yl)-2-oxoethyl)-7-methoxy-2-methylquinoline-4-carboxamide] |  | 6.42 | 6.52 |  | < 3 µL/min/mg | <1 μL/min/1E6 | <1 μL/min/1E6 | 120 µM (≈ 43.7 µg/mL) | 7.42 |  |  |  |  | 
N#C[C@@H]1C[C@@H]2C[C@@H]2N1C(=O)CNC(=O)c1ccnc2ccc(C3(C(F)(F)F)CC3)cc12 [Example 44, N-(2-((1S,3S,5S)-3-Cyano-2-azabicyclo[3.1.0]hexan-2-yl)-2-oxoethyl)-6-(1-(trifluoromethyl)cyclopropyl)quinoline-4-carboxamide] | 8.96 |  |  | < 4.30 | > 300 µL/min/mg | 150 μL/min/1E6 |  | 510 µM (≈ 218 µg/mL) | 8.34 |  |  |  |  | 7.92
CCOC1(c2ccc3nccc(C(=O)NCC(=O)N4[C@H](C#N)C[C@@H]5C[C@@H]54)c3c2)CC1 [Example 45, N-(2-((1S,3S,5S)-3-Cyano-2-azabicyclo[3.1.0]hexan-2-yl)-2-oxoethyl)-6-(1-ethoxycyclopropyl)quinoline-4-carboxamide] | 9.60 |  |  | < 4.30 | 120 µL/min/mg | 40 μL/min/1E6 |  | > 1000 µM | 9.12 |  |  |  |  | 8.14
N#C[C@@H]1C[C@@H]2C[C@@H]2N1C(=O)CNC(=O)c1ccnc2ccc(C3(C#N)CC3)cc12 [Example 46, N-(2-((1S,3S,5S)-3-Cyano-2-azabicyclo[3.1.0]hexan-2-yl)-2-oxoethyl)-6-(1-cyanocyclopropyl)quinoline-4-carboxamide] | 9.74 |  |  | < 4.30 | 20 µL/min/mg | 6.6 μL/min/1E6 | <1 μL/min/1E6 | 110 µM (≈ 42.4 µg/mL) | 8.77 |  |  |  |  | 7.60
